Assay results reported in PMC9923736, “Optimized Ebselen-Based Inhibitors of Bacterial Ureases with Nontypical Mode of Action” (Journal of Medicinal Chemistry, 2023).

What was measured:
[1] = target: bacterial thioredoxin reductase, Bacillus anthracis; conditions: cited from earlier work
[2] = target: histone deacetylases; design: method as in PMID 22047054; conditions: cited from earlier work
[3] = tested on: urease in living cells of P. mirabilis PCM 543; assay: Inhibition of ureolysis in whole P. mirabilis cells in PBS buffer (nongrowth conditions); conditions: Proteus mirabilis, read-out: IC50 (PBS buffer)
[4] = target: methionine aminopeptidase 2; conditions: cited from earlier work
[5] = target: antigen 85 complex; conditions: antigen 85 complex of Mycobacterium tuberculosis; cited from earlier work
[6] = target: glutamate dehydrogenase; conditions: cited from earlier work
[7] = tested on: urease in living cells of P. mirabilis PCM 543; assay: Inhibition of ureolysis in whole P. mirabilis cells in artificial urine model; conditions: Proteus mirabilis, read-out: IC90 (urine model)
[8] = target: Sporosarcina pasteurii urease (Sporosarcina pasteurii, UniProt P41020); assay: Inhibition of purified S. pasteurii urease (Ki; phenol-hypochlorite/Berthelot ammonia assay); assay type: biochemical; conditions: for mechanism of inhibition: S. pasteurii urease, Lineweaver-Burk plots / reaction progress curves
Protocol: The values of kinetic parameters ( and KM
vmax) of the purified enzyme were determined by fitting the initial reaction velocities measured in a range of urea concentrations to the Michaelis-Menten equation by nonlinear regression. The values […]
Enzymatic reactions were carried out in 3 mM phosphate buffer pH 7.5 at 37 °C. The kinetic parameters of urease in the noninhibited reaction ( and ) were obtained by measuring the Kmvmax […]
activity was defined as the amount of enzyme required to produce 1 µM ammonia per min under […]
S2.1. Inhibition studies.
S. pasteuriipM urease in assay mixtures (200 μL total volume) containing increasing concentrations […]
The values were calculated using the appropriate equations in Ki the GraphPad Prism 5 software. The inhibition mechanism was determined using Lineweaver-Burk plots after testing at least five inhibitor concentrations in the range depending on their inhibitory strength (exemplified in Figure S26).
S2.2. Inhibition studies. […]
and 52), ammonia concentration versus time, for urea hydrolysis catalyzed by S. pasteurii urease in the absence and presence of inhibitors were performed in standard assay mixtures at a single urea concentration (final concentration 25 mM) and at different inhibitor concentrations according to their inhibitory strength. Enzymatic hydrolysis of urea was initiated by adding […] of urease solution […]
min in samples taken from reaction mixtures at set time intervals. The reaction mixtures were stirred throughout the measurement period. The nonlinear reaction progress curves with time-dependent inhibitors of urease (for the nonincubated reaction and under conditions: [I]0 ≫ [E] 0) were described using the integrated equation: , (where is the concentration [P]=vt+(v+v)(1―e―kappt)1P […]
of the reaction product formed at time t, which is the reaction time, and are the reaction initial vivs and steady-state rates, respectively, and is the apparent first-order rate constant for the kapp interconversion between and ). […] The vivs […]
equilibrium dissociation constants of the initial and the final enzyme conformation complex EI EI ∗ […]
is the Michaelis-Menten constant, maximum rate of enzyme in a noninhibited reaction, vmax S and I are substrate and inhibitor concentration). The mechanism of inhibitor binding was determined using steady-state kinetic measurements (Figures S27 and S28). […]
pM) was pre-incubated with increasing inhibitor concentrations in separate aliquots of reaction buffer prior to the initiation of the reaction by urea incorporation at a concentration ranging from 1 to 60 mM. The incubation time was different for the assayed inhibitors, depending on when equilibrium was achieved between enzyme , inhibitor and enzyme-inhibitor complexes ( and : (E)(I)EI EI ∗ E + I ↔EI ↔ EI ∗ ) . The values were calculated using the appropriate equations implemented in Ki the GraphPad Prism 5 software. The inhibitors were dissolved in water or DMF (the solvent was […]
Urease activity was determined using the […]
run in triplicate for the compounds analyzed.

Chain of Sporosarcina pasteurii urease (P41020 whole entry, looked up): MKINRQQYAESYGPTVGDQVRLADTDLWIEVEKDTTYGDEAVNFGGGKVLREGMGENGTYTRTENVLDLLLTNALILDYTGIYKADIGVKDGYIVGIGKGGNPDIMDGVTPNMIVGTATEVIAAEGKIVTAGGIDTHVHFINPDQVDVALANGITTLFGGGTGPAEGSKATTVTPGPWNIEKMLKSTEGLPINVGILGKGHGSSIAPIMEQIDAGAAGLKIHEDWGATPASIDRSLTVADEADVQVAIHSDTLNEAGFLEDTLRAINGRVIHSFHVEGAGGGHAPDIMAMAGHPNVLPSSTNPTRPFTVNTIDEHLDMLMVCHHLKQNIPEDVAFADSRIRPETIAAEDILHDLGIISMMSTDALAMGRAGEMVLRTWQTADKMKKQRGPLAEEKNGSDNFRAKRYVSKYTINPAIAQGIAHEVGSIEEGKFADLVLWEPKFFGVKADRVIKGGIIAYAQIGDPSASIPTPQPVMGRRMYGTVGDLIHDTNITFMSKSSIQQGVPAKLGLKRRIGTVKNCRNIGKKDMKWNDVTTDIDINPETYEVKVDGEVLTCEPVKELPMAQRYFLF

SMILES | IC50 [3] [nM] | IC90 [7] [nM] | Ki [8] [nM] | also measured
O=c1c2ccccc2[se]n1-c1ccccc1 [compound 1, 2-phenyl-1,2-benzisoselenazol-3(2H)-one] | 29.2 ± 3.1 | – | – | IC50 [1]: 1000 nM; Ki [2]: 80 to 4420 nM; IC50 [4]: 2430 nM; Ki [5]: 63 nM; IC50 [6]: 360 nM
Cc1ccccc1-n1[se]c2ccccc2c1=O [compound 30, 2-(2-Methylphenyl)-1,2-benzisoselenazol-3(2H)-one] | 25 ± 2 | 121 ± 13 | 3.56 ± 0.32 | –
O=c1c2ccccc2[se]n1-c1ccccc1F [compound 31, 2-(2-Fluorophenyl)-1,2-benzisoselenazol-3(2H)-one] | 7.48 ± 0.67 | 34.7 ± 2.7 | 0.974 ± 0.089 | –
O=c1c2ccccc2[se]n1-c1ccccc1Cl [compound 32, 2-(2-Chlorophenyl)-1,2-benzisoselenazol-3(2H)-one] | 13.6 ± 1.5 | 87.7 ± 8.3 | 13.7 ± 0.96 | –
O=c1c2ccccc2[se]n1-c1ccccc1Br [compound 33, 2-(2-Bromophenyl)-1,2-benzisoselenazol-3(2H)-one] | 26.9 ± 2.8 | 543 ± 26 | 6.79 ± 0.53 | –
O=c1c2ccccc2[se]n1-c1ccccc1O [compound 34, 2-(2-Hydroxyphenyl)-1,2-benzisoselenazol-3(2H)-one] | 16.8 ± 1.4 | 148 ± 6 | 1.42 ± 0.14 | –
COc1ccccc1-n1[se]c2ccccc2c1=O [compound 35, 2-(2-Methoxyphenyl)-1,2-benzisoselenazol-3(2H)-one] | 4.19 ± 0.45 | 18.8 ± 2.4 | 5.36 ± 0.43 | –
O=c1c2ccccc2[se]n1-c1cccc(F)c1 [compound 36, 2-(3-Fluorophenyl)-1,2-benzisoselenazol-3(2H)-one] | 8.86 ± 0.81 | 223 ± 17 | 1.89 ± 0.16 | –
COc1cccc(-n2[se]c3ccccc3c2=O)c1 [compound 37, 2-(3-Methoxyphenyl)-1,2-benzisoselenazol-3(2H)-one] | 11.5 ± 1.3 | 53.8 ± 3.7 | 1.07 ± 0.08 | mechanism of inhibition [8]: Slow binding inhibition
Cc1ccc(-n2[se]c3ccccc3c2=O)cc1 [compound 38, 2-(4-Methylphenyl)-1,2-benzisoselenazol-3(2H)-one] | – | – | 4.04 ± 0.32 | –
O=c1c2ccccc2[se]n1-c1ccc(F)cc1 [compound 39, 2-(4-Fluorophenyl)-1,2-benzisoselenazol-3(2H)-one] | 12.1 ± 1.4 | 145 ± 17 | 24.1 ± 2.6 | –
O=c1c2ccccc2[se]n1-c1ccc(C(F)(F)F)cc1 [compound 40, 2-(4-Trifluoromethylphenyl)-1,2-benzisoselenazol-3(2H)-one] | 16 ± 1.3 | 100 ± 14 | 0.0363 ± 0.0039 | –
COc1ccc(-n2[se]c3ccccc3c2=O)cc1 [compound 41, 2-(4-Methoxyphenyl)-1,2-benzisoselenazol-3(2H)-one] | 15.9 ± 1.1 | 180 ± 10 | 44 ± 4.2 | –
CCCCOc1ccc(-n2[se]c3ccccc3c2=O)cc1 [compound 42, 2-(4-n-Butoxyphenyl)-1,2-benzisoselenazol-3(2H)-one] | 32.2 ± 3.8 | 224 ± 15 | 1.78 ± 0.18 | mechanism of inhibition [8]: Slow binding inhibition
COc1ccc(-n2[se]c3ccccc3c2=O)c(C)c1 [compound 43, 2-(4-Methoxy-2-methylphenyl)-1,2-benzisoselenazol-3(2H)-one] | 25.1 ± 2 | 148 ± 10 | 7.3 ± 0.56 | mechanism of inhibition [8]: Slow binding inhibition
O=c1c2ccccc2[se]n1-c1ccc(F)cc1F [compound 44, 2-(2,4-Difluorophenyl)-1,2-benzisoselenazol-3(2H)-one] | 17 ± 1.8 | 130 ± 16 | 0.0167 ± 0.0017 | –
Cc1ccc(-n2[se]c3ccccc3c2=O)c(Cl)c1 [compound 46, 2-(2-Chloro-4-methylphenyl)-1,2-benzisoselenazol-3(2H)-one] | 20 ± 1.7 | 176 ± 12 | 3.26 ± 0.23 | –
O=c1c2ccccc2[se]n1-c1ccc(F)cc1Cl [compound 47, 2-(2-Chloro-4-fluorophenyl)-1,2-benzisoselenazol-3(2H)-one] | 22.7 ± 2.5 | 126 ± 8 | 0.0058 ± 0.0004 | –
Cc1ccc(Cl)cc1-n1[se]c2ccccc2c1=O [compound 48, 2-(5-Chloro-2-methylphenyl)-1,2-benzisoselenazol-3(2H)-one] | – | – | 75.2 ± 6.2 | –
O=c1c2ccccc2[se]n1-c1cc(Cl)ccc1F [compound 49, 2-(5-Chloro-2-fluorophenyl)-1,2-benzisoselenazol-3(2H)-one] | 11.8 ± 1 | 151 ± 20 | 0.0135 ± 0.0014 | –
Cc1ccc(Cl)c(-n2[se]c3ccccc3c2=O)c1 [compound 50, 2-(2-Chloro-5-methylphenyl)-1,2-benzisoselenazol-3(2H)-one] | 54 ± 2.7 | 243 ± 17 | 1.63 ± 0.13 | –
O=c1c2ccccc2[se]n1-c1cc(Cl)ccc1Cl [compound 51, 2-(2,5-Dichlorophenyl)-1,2-benzisoselenazol-3(2H)-one] | 21.2 ± 1.5 | 254 ± 14 | 0.00885 | –
COc1ccc(C)cc1-n1[se]c2ccccc2c1=O [compound 52, 2-(2-Methoxy-5-methylphenyl)-1,2-benzisoselenazol-3(2H)-one] | 11.8 ± 1.6 | 96.6 ± 8.1 | 7.11 ± 0.56 | mechanism of inhibition [8]: Slow binding inhibition
COc1ccc(Cl)cc1-n1[se]c2ccccc2c1=O [compound 53, 2-(5-Chloro-2-methoxyphenyl)-1,2-benzisoselenazol-3(2H)-one] | 21.9 ± 1.7 | 82.2 ± 11.3 | 1.63 ± 0.12 | –
Cc1cc(-n2[se]c3ccccc3c2=O)ccc1Cl [compound 54, 2-(4-Chloro-3-methylphenyl)-1,2-benzisoselenazol-3(2H)-one] | 23.8 ± 2 | 124 ± 14 | 2.45 ± 0.16 | –
